Columns and labels:
THP-1 cells = test: TNF-α release/production from THP-1 cell line; type: cell-based; conditions: FIG. 8, THP-1 cell line
Experimental: In this example the ability of three New Zealand honeys to elicit the release of TNF-α from the monocytic cell lines THP-1 and U937 were investigated and the bioactive component responsible identified.
In this example, the effect or otherwise of pure AGP was analysed to determine how AGP influences cytokine stimulation as exemplified by TNF-α production from THP-1 cell line.
Varying doses of LPS were tested against THP-1 cell line and the cytokine response measured. […] The results further reinforce the presence of type II AG compounds and their influence on inflammation.

primed macrophage cells = test: cytokine TNFα response of primed macrophage cells; type: cell-based; conditions: added alone to primed macrophage cells
Experimental: Macrophage cells were then matured to a point where they were primed and ready to respond to an input. Adding varying levels of LPS and measuring the cytokine TNFα response confirmed the maturity and readiness of the macrophage cells.
A variety of different honeys were then added to the primed macrophage cells and the cytokine response measured to determine if there were any trends. ethylglyoxal (MGO) was also added with or without honey to determine if this ingredient of manuka honey also influenced the immune stimulation effects. A sugar solution was also used to determine if this had any effect as well.
Honey samples (5% (w/v) and LPS (1000 ng/mL) were prepared in water and heated at 80° C. for 30 min in a shaking water bath. After heat processing, further dilutions were performed in RPMI medium and the resulting honey tested for cytokine response.

## CC(=O)C=O [MGO, methylglyoxal]
THP-1 cells
  pro-inflammatory response: no significant pro-inflammatory response
Primed macrophage cells
  impact on immune stimulation (cytokine response): no impact

— patent publication US9827275B2, “Immunostimulatory compositions and methods of use thereof” (Comvita New Zealand Ltd., priority 2010, dated 2017)
